Assay results taken from ChEMBL document CHEMBL1201862, “PubChem BioAssay data set” (2004).
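Protocol summary: plate cells (96-well), add compound at 5 concentrations, incubate 48 h, interpolate endpoints linearly. Here, GI50 denotes the concentration required for 50% inhibition of growth.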 Active and inactive are the calls of the source. Rule as the data show it: active = GI50 up to about 1.1 µM and inactive = higher.

Key:
Experiment in all cases: growth of human tumour cells (NCI), 48 h
[1] = system: HCT-15
[2] = system: HT-29
[3] = system: SR
[4] = system: U-251
[5] = system: SF-539
[6] = system: SNB-75
[7] = system: HOP-92
[8] = system: MOLT-4
[9] = system: KM12
[10] = system: NCI-H460
[11] = system: XF498
[12] = system: 786-0
[13] = system: SW-620
[14] = system: Malme-3M
[15] = system: OVCAR-4
[16] = system: UO-31
[17] = system: M14
[18] = system: HCT-116
[19] = system: LOX IMVI
[20] = system: COLO 205
[21] = system: IGROV-1
[22] = system: K562
[23] = system: CAKI-1
[24] = system: RPMI-8226
[25] = system: TK-10
[26] = system: HL-60
[27] = system: NCI-H23
[28] = system: HCC 2998
[29] = system: SN12C
[30] = system: OVCAR-8
[31] = system: SF-295
[32] = system: A549
[33] = system: RXF 631
[34] = system: DMS-114
[35] = system: ACHN
[36] = system: DMS-273
[37] = system: DLD-1
[38] = system: CCRF-CEM
[39] = system: A498
[40] = system: UACC-257
[41] = system: LXFL 529
[42] = system: HOP-18
[43] = system: EKVX
[44] = system: SK-OV-3
[45] = system: HOP-62
[46] = system: OVCAR-3
[47] = system: NCI-H226
[48] = system: RXF 393
[49] = system: SK-MEL-5
[50] = system: SF-268
[51] = system: M19-MEL
[52] = system: UACC-62
[53] = system: KM-20L2
[54] = system: OVCAR-5
[55] = system: SK-MEL-28
[56] = system: SNB-78
[57] = system: SK-MEL-2
[58] = system: SNB-19
[59] = system: NCI-H522

COC(=O)C1CC(=O)O[C@H]1c1ccc(OC)c(OC)c1 (stereo partly specified)
GI50 [1]: > 100 µM | GI50 [2]: > 100 µM (inactive) | GI50 [3]: > 100 µM (inactive) | GI50 [4]: > 100 µM (inactive) | GI50 [5]: > 100 µM (inactive) | GI50 [6]: > 100 µM (inactive) | GI50 [7]: > 100 µM (inactive) | GI50 [8]: > 100 µM (inactive) | GI50 [9]: > 100 µM (inactive) | GI50 [10]: > 100 µM (inactive) | GI50 [11]: > 100 µM (inactive) | GI50 [12]: > 100 µM (inactive) | GI50 [13]: > 100 µM (inactive) | GI50 [14]: > 100 µM (inactive) | GI50 [15]: > 100 µM (inactive) | GI50 [16]: > 100 µM (inactive) | GI50 [17]: > 100 µM (inactive) | GI50 [18]: > 100 µM (inactive) | GI50 [19]: > 100 µM (inactive) | GI50 [20]: > 100 µM (inactive) | GI50 [21]: > 100 µM (inactive) | GI50 [22]: > 100 µM (inactive) | GI50 [23]: > 100 µM (inactive) | GI50 [24]: > 100 µM (inactive) | GI50 [25]: > 100 µM (inactive) | GI50 [26]: > 100 µM (inactive) | GI50 [27]: > 100 µM (inactive) | GI50 [28]: > 100 µM (inactive) | GI50 [29]: > 100 µM (inactive) | GI50 [30]: > 100 µM (inactive) | GI50 [31]: > 100 µM (inactive) | GI50 [32]: > 100 µM (inactive) | GI50 [33]: > 100 µM (inactive) | GI50 [34]: > 100 µM (inactive) | GI50 [35]: > 100 µM (inactive) | GI50 [36]: > 100 µM (inactive) | GI50 [37]: > 100 µM (inactive) | GI50 [38]: > 100 µM (inactive) | GI50 [39]: > 100 µM (inactive) | GI50 [40]: > 100 µM (inactive) | GI50 [41]: > 100 µM (inactive) | GI50 [42]: > 100 µM (inactive) | GI50 [43]: > 100 µM (inactive) | GI50 [44]: > 100 µM (inactive) | GI50 [45]: > 100 µM (inactive) | GI50 [46]: > 100 µM (inactive) | GI50 [47]: > 100 µM (inactive) | GI50 [48]: > 100 µM (inactive) | GI50 [49]: > 100 µM (inactive) | GI50 [50]: > 100 µM (inactive) | GI50 [51]: > 100 µM (inactive) | GI50 [52]: > 100 µM (inactive) | GI50 [53]: > 100 µM (inactive) | GI50 [54]: > 100 µM (inactive) | GI50 [55]: > 100 µM (inactive) | GI50 [56]: > 100 µM (inactive) | GI50 [57]: > 100 µM (inactive)

C=CC/C=C/C/C=C/CCCCCCCc1cccc(O)c1C(=O)O
GI50 [1]: 48 µM | GI50 [2]: 48.8 µM (inactive) | GI50 [3]: > 100 µM (inactive) | GI50 [4]: 19.7 µM (inactive) | GI50 [5]: 69.5 µM (inactive) | GI50 [6]: 43.4 µM (inactive) | GI50 [7]: 23.7 µM (inactive) | GI50 [8]: 42.8 µM (inactive) | GI50 [9]: 64 µM (inactive) | GI50 [10]: 36.1 µM (inactive) | GI50 [11]: > 100 µM (inactive) | GI50 [12]: > 100 µM (inactive) | GI50 [13]: 45.9 µM (inactive) | GI50 [14]: 47.6 µM (inactive) | GI50 [15]: 42.2 µM (inactive) | GI50 [16]: 25.2 µM (inactive) | GI50 [17]: 82.8 µM (inactive) | GI50 [18]: > 100 µM (inactive) | GI50 [19]: 44.7 µM (inactive) | GI50 [20]: > 100 µM (inactive) | GI50 [21]: 33.6 µM (inactive) | GI50 [22]: 33.3 µM (inactive) | GI50 [23]: 32.1 µM (inactive) | GI50 [24]: 40.2 µM (inactive) | GI50 [58]: 34.9 µM (inactive) | GI50 [25]: 54.7 µM (inactive) | GI50 [26]: > 100 µM (inactive) | GI50 [27]: 29.6 µM (inactive) | GI50 [28]: 58.7 µM (inactive) | GI50 [30]: > 100 µM (inactive) | GI50 [31]: > 100 µM (inactive) | GI50 [59]: 39.5 µM (inactive) | GI50 [32]: 33 µM (inactive) | GI50 [33]: > 100 µM (inactive) | GI50 [34]: > 100 µM (inactive) | GI50 [35]: 44.2 µM (inactive) | GI50 [36]: 45.4 µM (inactive) | GI50 [37]: 35 µM (inactive) | GI50 [38]: 30.3 µM (inactive) | GI50 [40]: 73.3 µM (inactive) | GI50 [41]: 36.1 µM (inactive) | GI50 [42]: 17.3 µM (inactive) | GI50 [43]: 49 µM (inactive) | GI50 [44]: 25.2 µM (inactive) | GI50 [45]: 14.4 µM (inactive) | GI50 [46]: 35.4 µM (inactive) | GI50 [50]: 24.3 µM (inactive) | GI50 [51]: 43.9 µM (inactive) | GI50 [52]: 31.1 µM (inactive) | GI50 [53]: 86.1 µM (inactive) | GI50 [54]: > 100 µM (inactive) | GI50 [55]: 32.7 µM (inactive) | GI50 [56]: > 100 µM (inactive) | GI50 [57]: 49 µM (inactive)
